From patent US20120190669A1, “OXINDOLE COMPOUNDS” (CYLENE PHARMACEUTICALS, INC., priority 2008, published 2012)

Experiments:
recombinant PIM-1 = recombinant PIM-1 (Homo sapiens, UniProt P11309); test: PIM-1 kinase assay (radiometric, 15 uM ATP, DMSO 4%); type: biochemical; settings: Table 4; 15 um ATP; read-out: PIM1: IC50 (15 um ATP)
K-562 = test: Alamar Blue cell proliferation assay, K-562; type: cell-based; settings: Homo sapiens, K562, Table 4, read-out: AB: K-562
Experimental: (§1) A representative cell-proliferation assay protocol using Alamar Blue dye (stored at 4° C., use 20 ul per well) is described hereafter.
(§2) 96-Well Plate Setup and Compound Treatment
(§3) a. Split and trypsinize cells.
(§4) b. Count cells using hemocytometer.
(§5) c. Plate 4,000-5,000 cells per well in 100 μl of medium and seed into a 96-well plate according to the following plate layout. Add cell culture medium only to wells B10 to B12. Wells B1 to B9 have cells but no compound added.
(§6) d. Add 100 μl of 2× drug dilution to each well in a concentration shown in the plate layout above. At the same time, add 100 μl of media into the control wells (wells 1310 to B12). Total volume is 200 μl/well.
(§7) e. Incubate four (4) days at 37° C., 5% CO2 in a humidified incubator.
(§8) f. Add 20 μl Alamar Blue reagent to each well.
(§9) g. Incubate for four (4) hours at 37° C., 5% CO2 in a humidified incubator.
(§10) h. Record fluorescence at an excitation wavelength of 544 nm and emission wavelength of 590 nm using a microplate reader.
(§11) In the assays, cells are cultured with a test compound for approximately four days, the dye is then added to the cells and fluorescence of […] dye is detected after approximately four hours. Different types of cells can be utilized in the assays (e.g., HCT-116 human colorectal carcinoma cells, PC-3 human prostatic cancer cells and MiaPaca human pancreatic carcinoma cells).

[1] = system: MiaPaca human pancreatic carcinoma cells; test: Alamar Blue cell proliferation assay, MiaPaCa; type: cell-based; settings: MIA PaCa-2, Table 4, read-out: AB: MiaPaCa
Experimental: as §1, §2, §3, §4, §5, §6, §7, §8, §9, §10, §11

[2] = system: PC-3 human prostatic cancer cells; test: Alamar Blue cell proliferation assay, PC3; type: cell-based; settings: Table 4, read-out: AB: PC3
Experimental: as §1, §2, §3, §4, §5, §6, §7, §8, §9, §10, §11

MV-4-11 = test: Alamar Blue cell proliferation assay, MV-4-11; type: cell-based; settings: Homo sapiens, MV4-11, Table 4, read-out: AB: MV-4-11
Experimental: as §1, §2, §3, §4, §5, §6, §7, §8, §9, §10, §11

THP-1 = test: Alamar Blue cell proliferation assay, THP-1; type: cell-based; settings: Homo sapiens, Table 4, read-out: AB: THP-1
Experimental: as §1, §2, §3, §4, §5, §6, §7, §8, §9, §10, §11

phospho FLT3 = phospho FLT3 cell-based data; settings: Table 4
phospho BAD = phospho BAD cell-based data; settings: Table 4
MDAMB-231 = test: Alamar Blue cell proliferation assay, MDAMB-231; type: cell-based; settings: Homo sapiens, MDA-MB-231, Table 4, read-out: AB: MDAMB231
Experimental: as §1, §2, §3, §4, §5, §6, §7, §8, §9, §10, §11

BxPC3 = test: Alamar Blue cell proliferation assay, BxPC3; type: cell-based; settings: Homo sapiens, BXPC-3, Table 4, read-out: AB: BxPC3
Experimental: as §1, §2, §3, §4, §5, §6, §7, §8, §9, §10, §11

MV-4-11 (AML) xenograft = settings: 2008 AACR Annual Meeting, Abstract No. 4974; cited from earlier work
MOLM-13 (AML) xenograft = settings: 2008 AACR Annual Meeting, Abstract No. 4974; cited from earlier work
recombinant human FLT-3 = target: T1, recombinant human FLT-3 (Homo sapiens, UniProt P36888); test: FLT-3 kinase activity, cell free in vitro assay; type: biochemical; settings: Table 7; 10 uM ATP; read-out: FLT3_RB: IC50
T1 sequence (P36888 27-993): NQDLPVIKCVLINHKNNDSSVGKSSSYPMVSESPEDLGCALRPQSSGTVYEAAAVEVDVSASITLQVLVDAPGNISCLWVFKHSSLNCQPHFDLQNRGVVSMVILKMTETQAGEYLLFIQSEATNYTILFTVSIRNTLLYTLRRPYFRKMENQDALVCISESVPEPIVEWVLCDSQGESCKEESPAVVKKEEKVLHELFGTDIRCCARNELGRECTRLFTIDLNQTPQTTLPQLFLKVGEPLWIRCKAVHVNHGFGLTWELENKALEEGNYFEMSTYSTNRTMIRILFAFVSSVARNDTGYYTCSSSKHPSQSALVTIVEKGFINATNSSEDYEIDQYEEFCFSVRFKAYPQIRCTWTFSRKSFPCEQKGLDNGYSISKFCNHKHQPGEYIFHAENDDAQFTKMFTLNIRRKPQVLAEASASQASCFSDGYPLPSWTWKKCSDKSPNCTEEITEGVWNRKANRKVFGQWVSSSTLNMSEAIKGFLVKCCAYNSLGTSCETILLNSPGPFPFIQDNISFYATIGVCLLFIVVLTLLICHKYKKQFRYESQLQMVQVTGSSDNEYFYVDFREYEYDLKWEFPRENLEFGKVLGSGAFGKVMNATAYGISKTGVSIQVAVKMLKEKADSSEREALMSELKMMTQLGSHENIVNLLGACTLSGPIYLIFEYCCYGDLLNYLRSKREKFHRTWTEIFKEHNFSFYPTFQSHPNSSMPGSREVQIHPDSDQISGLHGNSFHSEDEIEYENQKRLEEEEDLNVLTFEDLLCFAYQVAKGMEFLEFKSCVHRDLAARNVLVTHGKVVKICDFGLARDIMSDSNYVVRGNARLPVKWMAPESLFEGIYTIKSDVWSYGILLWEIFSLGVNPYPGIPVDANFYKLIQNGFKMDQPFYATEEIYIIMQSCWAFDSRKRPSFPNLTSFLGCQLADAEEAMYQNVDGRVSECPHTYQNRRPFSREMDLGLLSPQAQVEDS

recombinant human PIM2 = recombinant human PIM2 (Homo sapiens, UniProt Q9P1W9); test: PIM-2 assay (radiometric); type: biochemical; settings: Table 8; read-out: PIM2 IC50
recombinant human PIM2, sequence (Q9P1W9 whole entry): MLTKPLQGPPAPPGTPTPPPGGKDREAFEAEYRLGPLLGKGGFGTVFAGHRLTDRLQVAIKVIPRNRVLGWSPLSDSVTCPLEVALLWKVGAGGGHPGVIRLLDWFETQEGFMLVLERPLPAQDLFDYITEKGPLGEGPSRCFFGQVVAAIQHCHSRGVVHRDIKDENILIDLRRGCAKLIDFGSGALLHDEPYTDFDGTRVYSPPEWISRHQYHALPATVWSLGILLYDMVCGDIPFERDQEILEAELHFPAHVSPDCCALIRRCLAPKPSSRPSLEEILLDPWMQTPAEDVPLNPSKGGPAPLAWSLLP
Experimental: Test compounds dissolved and diluted in DMSO ([…]) were added to a reaction mixture comprising […] of 5× Reaction Buffer (40 mM MOPS pH 7.0, 5 mM EDTA), […] of recombinant human PIM2 solution (4 ng PIM-2 dissolved in dilution buffer (20 mM MOPS pH 7.0; EDTA 1 mM; 5% Glycerol; 0.01% Brij 35; […]; […] 2-mercaptoethanol; 1 mg/ml BSA)) and 8 ul of water. Reactions were initiated by the addition of 10 ul of ATP Solution (49% (15 mM MgCl2; 75 uM ATP) 1% ([γ-33P]ATP: Stock 1 mCi/100 μl; 3000 Ci/mmol (Perkin Elmer)) and 10 ul of substrate peptide solution ([…], dissolved in water at a concentration of 1 mM), Reactions were maintained for 10 min at 30° C. The reactions were quenched with 100 ul of 0.75% Phosphoric acid, then transferred to and filtrered through a Phosphocellulose filter plate (Millipore, MSPH-N6B-50). After washing each well 4 times with 0.75% Phosphoric acid, scintillation fluid (20 uL) was added to each well and the residual radioactivity was measured using a Wallac […] counter.

Pim-3 (h) = target: T2, Pim-3 (h) (Homo sapiens, UniProt Q86V86); test: PIM-3 assay run at Millipore; type: biochemical; settings: Table 8; read-out: PIM3 IC50
T2 construct: purchased Millipore (printed 'Millopore'; assay run as a service at the vendor)
Experimental: The PIM-3 assay was run at Millopore. The following is the assay as described in the Millopore protocol guide. […] (specific activity approx. 500 cpm/pmol, concentration as required). The reaction is initiated by the addition of the MgATP mix. After incubation for 40 minutes at room temperature, the reaction is stopped by the addition of 5 μL of a 3% phosphoric acid solution. 10 μL of the reaction is then spotted onto a P30 filtermat and washed three times for 5 minutes in 75 mM phosphoric acid and once in methanol prior to drying and scintillation counting.

[3] = system: leukemic cells from AML patients; settings: Fedorov et al., PNAS 104(51); cited from earlier work

recombinant PIM-1, sequence (P11309 whole entry): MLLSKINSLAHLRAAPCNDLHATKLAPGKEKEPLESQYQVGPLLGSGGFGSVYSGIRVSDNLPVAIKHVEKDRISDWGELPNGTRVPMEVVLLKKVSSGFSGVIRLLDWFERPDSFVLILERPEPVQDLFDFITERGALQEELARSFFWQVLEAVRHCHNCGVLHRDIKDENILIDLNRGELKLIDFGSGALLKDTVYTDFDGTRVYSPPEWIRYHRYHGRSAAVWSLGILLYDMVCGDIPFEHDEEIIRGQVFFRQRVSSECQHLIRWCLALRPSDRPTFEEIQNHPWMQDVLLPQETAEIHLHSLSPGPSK

Question: For `O=C1Nc2ccc(Cl)cc2/C1=C\c1ccc(-c2cccc(C(=O)NCCN(CCO)CCO)c2)o1` [drawing 238], which IC50 (recombinant PIM-1) is on record?
Answer: 81 nM

Question: And the IC50 (K-562)?
Answer: 1610 nM

Question: What about the IC50 [1] of the same compound?
Answer: > 30000 nM

Question: And the IC50 [2]?
Answer: > 30000 nM

Question: And the IC50 (MV-4-11)?
Answer: 288 nM

Question: What about the IC50 (THP-1) of the same compound?
Answer: 2900 nM

Question: What about the IC50 (phospho FLT3) of the same compound?
Answer: > 10000 nM

Question: And the IC50 (phospho BAD)?
Answer: 609 nM

Question: Which results are given for `CCN(CC)CCC(=O)Nc1cccc(-c2ccc(/C=C3/C(=O)Nc4ccccc43)o2)c1` [drawing 235]?
Answer: IC50 (recombinant PIM-1): 259 nM; IC50 (K-562): 472 nM; IC50 [1]: 101 nM; IC50 [2]: 3930 nM; IC50 (MV-4-11): 349 nM; IC50 (THP-1): 3770 nM; IC50 (phospho FLT3): > 10000 nM; IC50 (phospho BAD): 1410 nM

Question: Which IC50 (recombinant PIM-1) does the source give for `O=C(CN1CCCC1)Nc1cccc(-c2ccc(/C=C3/C(=O)Nc4ccccc43)o2)c1` [drawing 236] here?
Answer: 549 nM

Question: And the IC50 (K-562)?
Answer: 1370 nM

Question: What about the IC50 [1] of the same compound?
Answer: > 10000 nM

Question: What about the IC50 [2] of the same compound?
Answer: 1350 nM

Question: What about the IC50 (MV-4-11) of the same compound?
Answer: 350 nM

Question: What about the IC50 (THP-1) of the same compound?
Answer: 3860 nM

Question: What about the IC50 (phospho FLT3) of the same compound?
Answer: > 10000 nM

Question: What about the IC50 (phospho BAD) of the same compound?
Answer: 2130 nM

Question: With `C/C(=C1\C(=O)Nc2ccc(Cl)cc21)c1ccc(-c2cccc(C(=O)N3CCCN(C)CC3)c2)o1` as the compound, how does the IC50 (K-562) read?
Answer: 777 nM

Question: And the IC50 (MDAMB-231)?
Answer: 816 nM

Question: What about the IC50 (MV-4-11) of the same compound?
Answer: 178 nM

Question: And the IC50 (BxPC3)?
Answer: 785 nM

Question: And the IC50 (phospho FLT3)?
Answer: 9060 nM

Question: What about the IC50 (phospho BAD) of the same compound?
Answer: 1760 nM

Question: For `CN1CCC(CNc2ccc3ncc(-c4cccc(OC(F)(F)F)c4)n3n2)CC1` [SGI-1776], which “tumor regression in MV-4-11 (AML) xenograft model” value (MV-4-11 (AML) xenograft) is on record?
Answer: significant tumor regression

Question: And the “tumor regression in MOLM-13 (AML) xenograft model” value (MOLM-13 (AML) xenograft)?
Answer: significant tumor regression

Question: What does the source list for `O=C1Nc2ccc(Cl)cc2/C1=C\c1ccc(-c2cccc(C(=O)NCCCO)c2)o1`?
Answer: IC50 (K-562): > 10000 nM; IC50 [1]: > 30000 nM; IC50 [2]: > 30000 nM; IC50 (MV-4-11): 608 nM; IC50 (THP-1): > 30000 nM; IC50 (phospho FLT3): > 10000 nM; IC50 (phospho BAD): 3500 nM

Question: For `O=C1Nc2ccc(F)cc2/C1=C\c1ccc(-c2cccc(C(=O)NC3CC3)c2)o1` [drawing 263], which IC50 (recombinant human FLT-3) is on record?
Answer: 306 nM

Question: With `CN1CCCN(C(=O)c2ccc(-c3ccc(/C=C4/C(=O)Nc5ccc(Cl)cc54)o3)cc2)CC1` [drawing 337] as the compound, how does the IC50 (recombinant human PIM2) read?
Answer: < 500 nM

Question: What about the IC50 (Pim-3 (h)) of the same compound?
Answer: < 1000 nM

Question: Which IC50 (recombinant human FLT-3) does the source give for `O=C1Nc2ccccc2/C1=C\c1ccc(-c2ccc(Cl)c(C(=O)NCCN3CCCC3)c2)o1` [drawing 261] here?
Answer: 211 nM

Question: Which “cell growth and cell death in leukemic cells from AML patients” value [3] does the source give for `CN(C)C[C@@H]1CCn2cc(c3ccccc32)C2=C(C(=O)NC2=O)c2cn(c3ccccc23)CCO1` [Ly5333′531] here?
Answer: suppressed cell growth and induced cell death

Question: With `C/C(=C1\C(=O)Nc2ccc(Cl)cc21)c1ccc(-c2ccc(C(=O)N3CCCN(C)CC3)cc2)o1` [drawing 336] as the compound, how does the IC50 (recombinant human PIM2) read?
Answer: < 500 nM

Question: What about the IC50 (Pim-3 (h)) of the same compound?
Answer: < 1000 nM
